# Earlier results as cited in publication PMC9851200, “Multiparameter phenotypic screening for endogenous TFEB and TFE3 translocation identifies novel chemical series modulating lysosome function” (Autophagy, 2022).
# Columns and labels:
# Design in all cases: method as in original PKIS2 published data
# [1] = biological target: kinases (KINOMEscan panel) (Homo sapiens, UniProt Q13557); conditions: kinase CAMK2D; Published KINOMEscan; ref original PKIS2 published data; cited from earlier work
# [2] = biological target: kinases (KINOMEscan panel) (Homo sapiens, UniProt Q8N5S9); conditions: CAMKK1; Published KINOMEscan; ref original PKIS2 published data; cited from earlier work
# Chain of kinases (KINOMEscan panel) (Homo sapiens, UniProt Q8N5S9) (Q8N5S9 whole entry): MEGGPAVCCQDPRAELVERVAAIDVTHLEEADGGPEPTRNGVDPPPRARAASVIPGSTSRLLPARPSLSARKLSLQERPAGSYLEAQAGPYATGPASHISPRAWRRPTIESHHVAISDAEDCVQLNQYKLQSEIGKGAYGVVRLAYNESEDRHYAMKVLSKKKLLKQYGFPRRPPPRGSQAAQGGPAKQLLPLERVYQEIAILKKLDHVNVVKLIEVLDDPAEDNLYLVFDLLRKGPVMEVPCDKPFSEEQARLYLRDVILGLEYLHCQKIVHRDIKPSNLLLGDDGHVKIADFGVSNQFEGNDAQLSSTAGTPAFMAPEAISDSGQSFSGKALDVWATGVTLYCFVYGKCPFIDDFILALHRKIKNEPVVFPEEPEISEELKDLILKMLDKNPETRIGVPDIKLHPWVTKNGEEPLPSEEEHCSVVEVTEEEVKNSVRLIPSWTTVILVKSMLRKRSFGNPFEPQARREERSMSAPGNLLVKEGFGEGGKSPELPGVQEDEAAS
# [3] = biological target: kinases (KINOMEscan panel) (Homo sapiens, UniProt P80192); conditions: Published KINOMEscan; ref original PKIS2 published data; cited from earlier work
# Chain of kinases (KINOMEscan panel) (Homo sapiens, UniProt P80192) (P80192 whole entry): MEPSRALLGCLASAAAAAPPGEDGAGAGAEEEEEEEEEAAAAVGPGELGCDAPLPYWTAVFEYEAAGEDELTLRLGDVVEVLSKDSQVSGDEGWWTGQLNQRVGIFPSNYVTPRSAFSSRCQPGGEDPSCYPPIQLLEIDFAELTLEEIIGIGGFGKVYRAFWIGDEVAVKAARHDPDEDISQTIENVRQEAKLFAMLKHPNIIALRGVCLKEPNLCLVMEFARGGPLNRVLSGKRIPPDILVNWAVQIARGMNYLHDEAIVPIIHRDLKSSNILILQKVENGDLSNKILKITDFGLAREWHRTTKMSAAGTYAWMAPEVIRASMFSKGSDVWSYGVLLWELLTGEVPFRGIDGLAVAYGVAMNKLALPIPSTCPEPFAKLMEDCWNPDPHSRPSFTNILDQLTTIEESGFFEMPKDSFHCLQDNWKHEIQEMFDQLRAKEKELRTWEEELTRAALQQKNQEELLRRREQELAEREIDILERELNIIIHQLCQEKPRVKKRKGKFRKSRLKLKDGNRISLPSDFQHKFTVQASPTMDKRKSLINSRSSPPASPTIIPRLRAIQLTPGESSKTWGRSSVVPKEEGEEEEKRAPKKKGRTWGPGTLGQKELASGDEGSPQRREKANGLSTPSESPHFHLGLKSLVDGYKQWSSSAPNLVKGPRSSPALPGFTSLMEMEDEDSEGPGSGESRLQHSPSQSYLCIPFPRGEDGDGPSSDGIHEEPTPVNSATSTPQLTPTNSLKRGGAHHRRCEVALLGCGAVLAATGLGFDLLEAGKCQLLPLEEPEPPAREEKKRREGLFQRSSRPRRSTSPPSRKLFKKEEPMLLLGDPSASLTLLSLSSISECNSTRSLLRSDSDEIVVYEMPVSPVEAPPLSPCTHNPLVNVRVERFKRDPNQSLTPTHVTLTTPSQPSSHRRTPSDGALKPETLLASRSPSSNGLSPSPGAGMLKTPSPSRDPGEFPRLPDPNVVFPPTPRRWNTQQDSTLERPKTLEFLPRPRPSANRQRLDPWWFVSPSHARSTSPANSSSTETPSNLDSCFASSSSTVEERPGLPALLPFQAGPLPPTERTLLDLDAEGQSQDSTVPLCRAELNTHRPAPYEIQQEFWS
# [4] = biological target: kinases (KINOMEscan panel) (Homo sapiens, UniProt Q9UM73); conditions: kinase ALK; Published KINOMEscan; ref original PKIS2 published data; cited from earlier work
# Chain of kinases (KINOMEscan panel) (Homo sapiens, UniProt Q9UM73) (Q9UM73 19-1620): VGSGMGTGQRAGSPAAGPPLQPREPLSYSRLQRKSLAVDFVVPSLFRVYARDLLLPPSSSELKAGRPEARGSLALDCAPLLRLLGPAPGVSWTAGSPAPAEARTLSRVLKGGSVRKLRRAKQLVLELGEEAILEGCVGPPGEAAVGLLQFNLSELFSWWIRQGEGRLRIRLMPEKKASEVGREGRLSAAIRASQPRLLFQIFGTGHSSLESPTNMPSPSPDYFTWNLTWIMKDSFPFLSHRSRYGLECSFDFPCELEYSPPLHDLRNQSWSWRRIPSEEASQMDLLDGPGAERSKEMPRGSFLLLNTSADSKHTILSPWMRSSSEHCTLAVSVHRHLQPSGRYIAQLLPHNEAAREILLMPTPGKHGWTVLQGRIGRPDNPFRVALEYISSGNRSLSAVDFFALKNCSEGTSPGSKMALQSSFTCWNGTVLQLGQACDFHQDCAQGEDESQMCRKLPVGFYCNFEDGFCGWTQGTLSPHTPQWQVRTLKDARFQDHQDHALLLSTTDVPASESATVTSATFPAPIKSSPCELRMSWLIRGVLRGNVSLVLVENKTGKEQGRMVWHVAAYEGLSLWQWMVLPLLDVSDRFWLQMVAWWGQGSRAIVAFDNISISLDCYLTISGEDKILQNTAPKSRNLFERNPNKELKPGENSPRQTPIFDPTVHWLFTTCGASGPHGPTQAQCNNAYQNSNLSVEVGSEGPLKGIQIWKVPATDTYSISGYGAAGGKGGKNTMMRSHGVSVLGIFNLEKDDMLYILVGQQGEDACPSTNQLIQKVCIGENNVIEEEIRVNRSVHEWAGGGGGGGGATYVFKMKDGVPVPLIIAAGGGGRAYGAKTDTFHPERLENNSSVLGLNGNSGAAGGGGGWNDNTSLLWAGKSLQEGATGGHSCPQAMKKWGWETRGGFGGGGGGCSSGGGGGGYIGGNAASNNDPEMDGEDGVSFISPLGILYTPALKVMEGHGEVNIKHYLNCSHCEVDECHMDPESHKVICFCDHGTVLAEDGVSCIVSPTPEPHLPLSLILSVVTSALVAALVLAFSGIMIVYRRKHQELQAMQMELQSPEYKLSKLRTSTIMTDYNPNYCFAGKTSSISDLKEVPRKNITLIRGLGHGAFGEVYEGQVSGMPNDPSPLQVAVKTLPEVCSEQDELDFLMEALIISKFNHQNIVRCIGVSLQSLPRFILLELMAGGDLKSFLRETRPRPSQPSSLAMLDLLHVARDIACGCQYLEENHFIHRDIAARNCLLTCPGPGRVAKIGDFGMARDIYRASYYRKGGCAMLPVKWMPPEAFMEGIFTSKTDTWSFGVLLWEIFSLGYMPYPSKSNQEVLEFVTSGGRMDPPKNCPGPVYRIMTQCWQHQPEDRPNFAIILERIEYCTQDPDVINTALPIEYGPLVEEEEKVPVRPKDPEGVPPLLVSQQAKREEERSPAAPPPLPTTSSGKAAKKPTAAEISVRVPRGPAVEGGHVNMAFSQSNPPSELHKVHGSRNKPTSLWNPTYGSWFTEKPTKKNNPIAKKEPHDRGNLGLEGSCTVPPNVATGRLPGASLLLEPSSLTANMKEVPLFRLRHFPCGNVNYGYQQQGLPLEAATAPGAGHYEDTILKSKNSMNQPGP
# [5] = biological target: kinases (KINOMEscan panel) (Homo sapiens, UniProt Q9Y463); conditions: kinase DYRK1B; Published KINOMEscan; ref original PKIS2 published data; cited from earlier work
# Chain of kinases (KINOMEscan panel) (Homo sapiens, UniProt Q9Y463) (Q9Y463 whole entry): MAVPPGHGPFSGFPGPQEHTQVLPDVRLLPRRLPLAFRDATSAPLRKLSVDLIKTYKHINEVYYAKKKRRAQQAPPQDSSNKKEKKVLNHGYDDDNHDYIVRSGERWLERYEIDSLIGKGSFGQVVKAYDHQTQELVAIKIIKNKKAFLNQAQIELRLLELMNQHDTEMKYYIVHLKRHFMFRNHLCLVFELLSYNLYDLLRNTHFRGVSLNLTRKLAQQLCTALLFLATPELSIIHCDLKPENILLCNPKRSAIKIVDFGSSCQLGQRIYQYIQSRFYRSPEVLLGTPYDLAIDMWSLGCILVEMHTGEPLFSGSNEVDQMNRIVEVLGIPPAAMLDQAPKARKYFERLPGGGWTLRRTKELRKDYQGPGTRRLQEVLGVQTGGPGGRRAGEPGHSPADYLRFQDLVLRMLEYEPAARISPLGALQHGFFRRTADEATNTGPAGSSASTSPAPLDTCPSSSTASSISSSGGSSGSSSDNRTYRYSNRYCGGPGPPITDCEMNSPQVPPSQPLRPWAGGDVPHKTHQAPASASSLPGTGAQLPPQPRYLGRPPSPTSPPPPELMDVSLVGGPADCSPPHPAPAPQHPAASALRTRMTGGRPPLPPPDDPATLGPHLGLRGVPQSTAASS
# [6] = biological target: T1, kinases (KINOMEscan panel) (Homo sapiens, UniProt Q14164); conditions: cited from earlier work
# T1 sequence (Q14164 1-716): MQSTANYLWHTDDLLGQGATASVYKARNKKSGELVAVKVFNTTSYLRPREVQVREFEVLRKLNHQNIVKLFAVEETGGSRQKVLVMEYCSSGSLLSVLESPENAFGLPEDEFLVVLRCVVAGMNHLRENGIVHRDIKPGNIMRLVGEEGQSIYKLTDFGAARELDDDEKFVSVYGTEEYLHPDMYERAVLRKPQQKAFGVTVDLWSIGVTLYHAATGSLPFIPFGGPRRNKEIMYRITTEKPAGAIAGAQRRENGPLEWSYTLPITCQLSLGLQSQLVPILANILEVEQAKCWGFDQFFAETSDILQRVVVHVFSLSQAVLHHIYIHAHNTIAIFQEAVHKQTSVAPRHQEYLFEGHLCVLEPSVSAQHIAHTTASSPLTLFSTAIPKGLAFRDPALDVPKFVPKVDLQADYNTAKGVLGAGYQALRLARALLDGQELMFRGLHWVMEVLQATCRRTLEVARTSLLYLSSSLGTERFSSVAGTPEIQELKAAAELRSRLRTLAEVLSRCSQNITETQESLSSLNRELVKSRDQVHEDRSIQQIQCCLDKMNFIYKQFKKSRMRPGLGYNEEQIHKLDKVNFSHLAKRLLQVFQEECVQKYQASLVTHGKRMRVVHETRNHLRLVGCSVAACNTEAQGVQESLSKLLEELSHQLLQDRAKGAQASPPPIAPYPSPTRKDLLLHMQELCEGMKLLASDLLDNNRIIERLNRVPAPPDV
# [7] = biological target: T2, kinases (KINOMEscan panel) (Homo sapiens, UniProt Q8N568); conditions: Published KINOMEscan; ref original PKIS2 published data; cited from earlier work
# T2 sequence (Q8N568 1-766): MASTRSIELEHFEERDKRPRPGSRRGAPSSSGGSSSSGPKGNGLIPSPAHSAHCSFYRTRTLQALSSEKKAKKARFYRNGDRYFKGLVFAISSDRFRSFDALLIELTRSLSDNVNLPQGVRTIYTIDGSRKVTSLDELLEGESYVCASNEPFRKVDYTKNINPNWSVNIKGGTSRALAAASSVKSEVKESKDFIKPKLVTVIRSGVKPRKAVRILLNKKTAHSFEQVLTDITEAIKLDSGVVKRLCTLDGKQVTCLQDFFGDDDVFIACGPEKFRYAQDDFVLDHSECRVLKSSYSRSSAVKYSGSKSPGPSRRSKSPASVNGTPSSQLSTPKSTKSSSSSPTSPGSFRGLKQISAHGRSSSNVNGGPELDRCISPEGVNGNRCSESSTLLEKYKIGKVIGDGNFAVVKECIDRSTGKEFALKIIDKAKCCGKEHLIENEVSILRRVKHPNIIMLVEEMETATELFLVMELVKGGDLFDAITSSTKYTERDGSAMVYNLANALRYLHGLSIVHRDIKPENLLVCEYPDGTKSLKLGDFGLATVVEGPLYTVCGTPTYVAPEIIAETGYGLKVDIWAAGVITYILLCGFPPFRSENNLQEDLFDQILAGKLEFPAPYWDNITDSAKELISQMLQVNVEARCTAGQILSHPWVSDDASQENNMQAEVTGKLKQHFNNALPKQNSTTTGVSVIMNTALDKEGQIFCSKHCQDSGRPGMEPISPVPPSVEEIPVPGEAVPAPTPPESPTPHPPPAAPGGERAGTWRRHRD
# [8] = biological target: T3, kinases (KINOMEscan panel) (Homo sapiens, UniProt P51813); conditions: BMX; Published KINOMEscan; ref original PKIS2 published data; cited from earlier work
# T3 sequence (P51813 1-675): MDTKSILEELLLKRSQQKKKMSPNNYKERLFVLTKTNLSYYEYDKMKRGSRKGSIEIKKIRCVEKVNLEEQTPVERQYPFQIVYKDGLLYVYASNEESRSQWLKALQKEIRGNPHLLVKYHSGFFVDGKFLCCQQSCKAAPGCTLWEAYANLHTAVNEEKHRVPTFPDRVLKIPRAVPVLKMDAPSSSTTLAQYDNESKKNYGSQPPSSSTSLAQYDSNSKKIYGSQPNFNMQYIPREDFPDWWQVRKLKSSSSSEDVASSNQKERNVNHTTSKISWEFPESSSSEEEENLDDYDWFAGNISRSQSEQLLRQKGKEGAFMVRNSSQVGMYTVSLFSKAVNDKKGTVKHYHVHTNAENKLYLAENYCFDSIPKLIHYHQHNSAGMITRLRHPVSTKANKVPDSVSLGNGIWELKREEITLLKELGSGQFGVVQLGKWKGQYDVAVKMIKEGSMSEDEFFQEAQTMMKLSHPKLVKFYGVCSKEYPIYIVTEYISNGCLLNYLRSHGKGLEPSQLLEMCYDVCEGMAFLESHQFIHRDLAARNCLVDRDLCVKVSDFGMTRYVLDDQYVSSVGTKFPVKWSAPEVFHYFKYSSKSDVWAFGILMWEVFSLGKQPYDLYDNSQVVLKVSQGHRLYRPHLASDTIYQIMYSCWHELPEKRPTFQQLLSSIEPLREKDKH
# Chain of kinases (KINOMEscan panel) (Homo sapiens, UniProt Q13557) (Q13557 whole entry): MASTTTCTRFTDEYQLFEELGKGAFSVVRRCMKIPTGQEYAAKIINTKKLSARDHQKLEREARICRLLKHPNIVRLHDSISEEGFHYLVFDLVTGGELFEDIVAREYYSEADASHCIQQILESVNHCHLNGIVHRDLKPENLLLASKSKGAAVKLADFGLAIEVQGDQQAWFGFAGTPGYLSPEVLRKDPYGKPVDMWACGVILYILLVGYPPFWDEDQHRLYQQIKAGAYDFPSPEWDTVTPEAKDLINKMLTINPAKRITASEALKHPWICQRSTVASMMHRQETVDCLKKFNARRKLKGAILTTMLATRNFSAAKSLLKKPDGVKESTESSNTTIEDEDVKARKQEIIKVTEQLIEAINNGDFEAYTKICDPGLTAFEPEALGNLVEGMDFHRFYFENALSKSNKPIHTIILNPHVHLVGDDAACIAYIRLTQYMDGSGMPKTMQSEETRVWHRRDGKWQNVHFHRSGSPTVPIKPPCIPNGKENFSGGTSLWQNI
smiles,measurement,setting,value
Cc1cccc(-c2nc(Nc3ccncc3)c3ccccc3n2)n1 [NK215],KINOMEscan CAMK2D,[1],7
same,KINOMEscan CAMKK1,[2],24
same,KINOMEscan MAP3K9,[3],11
same,KINOMEscan ALK,[4],0
same,KINOMEscan DYRK1B,[5],27
same,KINOMEscan IKBKE/IKK-epsilon,[6],0
same,KINOMEscan DCLK2,[7],0
same,KINOMEscan BMX,[8],6
